Experimental data taken from patent publication US9249129B2, “Morpholino substituted urea derivatives as mTOR inhibitors” (CELLZOME LIMITED, priority 2010, dated 2016).

What was measured:
Assay in all cases: kinobeads assay with mass spectrometry detection of kinases (kinase selectivity profile)
Format in all cases: binding
kinases (kinome) [1] = target: T1, kinases (kinome) (Homo sapiens, UniProt Q9H2K8); settings: TAO3 (STE), IPI00410485
T1 construct: determined in kinobeads assays with mass spectrometry detection of kinases as described previously; endogenous in cells; host or cells: cell lysate
T1 sequence (Q9H2K8 1-898): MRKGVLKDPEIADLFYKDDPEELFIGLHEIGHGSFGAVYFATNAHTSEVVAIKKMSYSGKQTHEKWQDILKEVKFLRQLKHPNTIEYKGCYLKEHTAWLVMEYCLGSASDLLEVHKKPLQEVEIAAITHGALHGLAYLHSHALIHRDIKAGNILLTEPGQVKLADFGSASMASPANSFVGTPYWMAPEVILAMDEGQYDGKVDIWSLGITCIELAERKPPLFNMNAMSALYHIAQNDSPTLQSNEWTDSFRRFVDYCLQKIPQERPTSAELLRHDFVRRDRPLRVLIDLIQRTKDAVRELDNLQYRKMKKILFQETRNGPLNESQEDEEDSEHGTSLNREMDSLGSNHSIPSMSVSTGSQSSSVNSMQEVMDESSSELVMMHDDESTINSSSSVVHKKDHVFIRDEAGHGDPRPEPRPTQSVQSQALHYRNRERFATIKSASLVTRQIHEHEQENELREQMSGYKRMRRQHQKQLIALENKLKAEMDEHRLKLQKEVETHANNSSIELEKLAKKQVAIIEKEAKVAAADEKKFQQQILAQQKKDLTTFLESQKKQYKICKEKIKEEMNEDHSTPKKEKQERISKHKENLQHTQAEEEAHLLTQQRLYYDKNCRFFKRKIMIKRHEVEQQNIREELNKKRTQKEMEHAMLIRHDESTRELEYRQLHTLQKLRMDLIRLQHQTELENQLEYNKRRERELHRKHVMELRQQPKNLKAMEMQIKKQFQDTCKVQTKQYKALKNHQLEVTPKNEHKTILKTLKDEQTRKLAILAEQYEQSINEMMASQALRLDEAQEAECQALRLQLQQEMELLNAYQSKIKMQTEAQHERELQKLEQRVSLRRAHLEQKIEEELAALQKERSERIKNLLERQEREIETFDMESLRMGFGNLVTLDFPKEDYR
Excerpt: (§1) The protein kinase complement of the human genome (the kinome) was described previously (Manning et al., 2002. Science 298(5600):1912-1934). Sequence accession numbers are defined by the International Protein Index (IPI) (Kersey et al., 2004. Proteomics 4(7):1985-1988).

kinases (kinome) [2] = target: T2, kinases (kinome) (Homo sapiens, UniProt O60885); settings: BRD4 (Atypical), IPI00440727
T2 construct: determined in kinobeads assays with mass spectrometry detection of kinases as described previously; endogenous in cells; host or cells: cell lysate
Excerpt: as §1

kinases (kinome) [3] = target: T3, kinases (kinome) (Homo sapiens, UniProt Q9UBE8); settings: NLK (CMGC), IPI00008237
T3 construct: determined in kinobeads assays with mass spectrometry detection of kinases as described previously; endogenous in cells; host or cells: cell lysate
T3 sequence (Q9UBE8 1-527): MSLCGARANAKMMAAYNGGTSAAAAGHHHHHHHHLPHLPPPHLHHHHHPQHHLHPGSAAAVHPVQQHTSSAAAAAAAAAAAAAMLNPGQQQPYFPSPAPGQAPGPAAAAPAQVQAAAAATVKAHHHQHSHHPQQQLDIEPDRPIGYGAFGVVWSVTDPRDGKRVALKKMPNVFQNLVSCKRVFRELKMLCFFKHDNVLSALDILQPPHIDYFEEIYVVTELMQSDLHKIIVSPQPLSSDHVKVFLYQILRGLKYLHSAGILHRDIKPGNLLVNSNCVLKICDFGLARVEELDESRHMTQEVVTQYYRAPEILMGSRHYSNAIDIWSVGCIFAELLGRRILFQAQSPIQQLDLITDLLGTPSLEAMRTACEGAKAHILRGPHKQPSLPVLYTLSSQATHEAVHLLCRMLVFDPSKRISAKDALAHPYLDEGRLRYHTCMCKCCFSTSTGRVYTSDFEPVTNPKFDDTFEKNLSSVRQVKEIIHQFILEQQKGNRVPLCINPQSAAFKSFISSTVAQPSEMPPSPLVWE
Excerpt: as §1

kinases (kinome) [4] = target: T4, kinases (kinome) (Homo sapiens, UniProt Q13555); settings: CaMK2g (CAMK), IPI00908444
T4 construct: determined in kinobeads assays with mass spectrometry detection of kinases as described previously; endogenous in cells; host or cells: cell lysate
T4 sequence (Q13555 whole entry): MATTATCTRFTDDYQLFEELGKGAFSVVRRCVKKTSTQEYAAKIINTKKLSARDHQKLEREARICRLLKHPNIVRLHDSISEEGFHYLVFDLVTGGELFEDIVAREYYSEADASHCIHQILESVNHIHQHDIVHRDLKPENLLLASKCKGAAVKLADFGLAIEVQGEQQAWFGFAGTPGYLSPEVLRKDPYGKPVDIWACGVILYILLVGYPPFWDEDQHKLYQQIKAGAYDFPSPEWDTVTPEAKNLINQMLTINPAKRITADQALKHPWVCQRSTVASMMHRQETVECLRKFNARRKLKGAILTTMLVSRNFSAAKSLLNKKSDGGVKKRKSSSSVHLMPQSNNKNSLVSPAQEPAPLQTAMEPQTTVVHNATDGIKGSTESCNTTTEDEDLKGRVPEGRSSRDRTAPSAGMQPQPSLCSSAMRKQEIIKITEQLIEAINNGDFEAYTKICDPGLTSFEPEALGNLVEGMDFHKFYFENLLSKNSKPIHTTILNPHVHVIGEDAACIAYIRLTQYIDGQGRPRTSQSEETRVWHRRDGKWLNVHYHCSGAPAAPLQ
Excerpt: as §1

kinases (kinome) [5] = target: T5, kinases (kinome) (Homo sapiens, UniProt P43405); settings: SYK (TK), IPI00018597
T5 construct: determined in kinobeads assays with mass spectrometry detection of kinases as described previously; endogenous in cells; host or cells: cell lysate
Excerpt: as §1

kinases (kinome) [6] = target: T6, kinases (kinome) (Homo sapiens, UniProt Q16539); settings: p38a (CMGC), IPI00221141
T6 construct: determined in kinobeads assays with mass spectrometry detection of kinases as described previously; endogenous in cells; host or cells: cell lysate
T6 sequence (Q16539 whole entry): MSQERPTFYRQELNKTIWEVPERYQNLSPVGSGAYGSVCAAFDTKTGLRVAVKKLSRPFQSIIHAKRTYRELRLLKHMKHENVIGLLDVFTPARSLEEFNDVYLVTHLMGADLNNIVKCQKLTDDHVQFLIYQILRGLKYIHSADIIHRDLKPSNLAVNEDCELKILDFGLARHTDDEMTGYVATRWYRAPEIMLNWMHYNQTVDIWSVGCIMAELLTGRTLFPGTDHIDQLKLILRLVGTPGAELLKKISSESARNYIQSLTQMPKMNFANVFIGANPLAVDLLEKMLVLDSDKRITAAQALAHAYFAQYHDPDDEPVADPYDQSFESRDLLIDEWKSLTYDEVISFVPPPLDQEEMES
Excerpt: as §1

kinases (kinome) [7] = target: T7, kinases (kinome) (Homo sapiens, UniProt Q13163); settings: MAP2K5 (STE), IPI00158248
T7 construct: determined in kinobeads assays with mass spectrometry detection of kinases as described previously; endogenous in cells; host or cells: cell lysate
T7 sequence (Q13163 1-448): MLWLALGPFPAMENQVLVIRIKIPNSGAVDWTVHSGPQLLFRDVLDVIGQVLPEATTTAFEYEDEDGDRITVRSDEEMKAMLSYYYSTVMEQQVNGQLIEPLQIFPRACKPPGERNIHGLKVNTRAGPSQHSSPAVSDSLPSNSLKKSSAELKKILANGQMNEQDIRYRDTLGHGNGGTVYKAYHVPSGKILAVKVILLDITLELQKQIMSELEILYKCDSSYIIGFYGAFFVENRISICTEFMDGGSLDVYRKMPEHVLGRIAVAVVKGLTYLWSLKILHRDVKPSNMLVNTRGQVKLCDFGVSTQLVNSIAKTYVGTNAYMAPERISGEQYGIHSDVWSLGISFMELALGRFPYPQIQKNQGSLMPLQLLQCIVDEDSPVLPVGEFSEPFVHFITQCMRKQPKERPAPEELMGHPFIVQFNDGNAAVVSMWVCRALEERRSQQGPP
Excerpt: as §1

kinases (kinome) [8] = target: T8, kinases (kinome) (Homo sapiens, UniProt Q15059); settings: BRD3 (Atypical), IPI00014266
T8 construct: determined in kinobeads assays with mass spectrometry detection of kinases as described previously; endogenous in cells; host or cells: cell lysate
T8 sequence (Q15059 whole entry): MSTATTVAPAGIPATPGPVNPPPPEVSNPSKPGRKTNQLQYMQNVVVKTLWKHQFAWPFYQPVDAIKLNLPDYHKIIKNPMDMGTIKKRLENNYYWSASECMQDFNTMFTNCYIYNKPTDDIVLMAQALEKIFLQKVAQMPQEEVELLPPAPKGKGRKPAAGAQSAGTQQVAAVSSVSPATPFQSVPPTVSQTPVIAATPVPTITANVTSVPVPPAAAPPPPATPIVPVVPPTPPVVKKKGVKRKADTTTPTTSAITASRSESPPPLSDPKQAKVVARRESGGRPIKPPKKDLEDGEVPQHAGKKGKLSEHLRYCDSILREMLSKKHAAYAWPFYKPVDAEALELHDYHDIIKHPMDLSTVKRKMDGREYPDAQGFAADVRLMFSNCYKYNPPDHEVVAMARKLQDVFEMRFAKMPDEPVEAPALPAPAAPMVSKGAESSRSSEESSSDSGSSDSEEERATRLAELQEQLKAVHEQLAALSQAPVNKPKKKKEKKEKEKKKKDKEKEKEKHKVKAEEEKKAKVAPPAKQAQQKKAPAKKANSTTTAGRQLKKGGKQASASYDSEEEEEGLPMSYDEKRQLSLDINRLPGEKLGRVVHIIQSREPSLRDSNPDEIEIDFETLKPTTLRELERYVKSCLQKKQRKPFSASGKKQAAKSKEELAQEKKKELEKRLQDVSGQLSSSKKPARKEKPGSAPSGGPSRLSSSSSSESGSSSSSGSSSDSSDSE
Excerpt: as §1

kinases (kinome) [9] = target: T9, kinases (kinome) (Homo sapiens, UniProt P12931); settings: SRC (TK), IPI00328867
T9 construct: determined in kinobeads assays with mass spectrometry detection of kinases as described previously; endogenous in cells; host or cells: cell lysate
T9 sequence (P12931 whole entry): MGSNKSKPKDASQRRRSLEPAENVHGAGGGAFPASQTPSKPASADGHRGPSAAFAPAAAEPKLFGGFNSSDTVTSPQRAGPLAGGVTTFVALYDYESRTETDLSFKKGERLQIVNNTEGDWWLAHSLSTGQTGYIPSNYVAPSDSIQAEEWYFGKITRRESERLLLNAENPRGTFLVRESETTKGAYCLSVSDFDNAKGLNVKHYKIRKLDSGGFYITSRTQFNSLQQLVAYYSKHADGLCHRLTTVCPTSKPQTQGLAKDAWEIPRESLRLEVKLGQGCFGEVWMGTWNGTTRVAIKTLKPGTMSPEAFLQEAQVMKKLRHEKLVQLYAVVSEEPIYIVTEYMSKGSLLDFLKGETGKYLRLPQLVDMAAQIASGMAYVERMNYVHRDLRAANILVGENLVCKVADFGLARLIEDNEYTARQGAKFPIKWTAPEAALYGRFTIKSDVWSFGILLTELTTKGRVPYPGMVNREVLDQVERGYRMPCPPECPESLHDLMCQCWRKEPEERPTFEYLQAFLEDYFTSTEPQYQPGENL
Excerpt: as §1

kinases (kinome) [10] = target: T10, kinases (kinome) (Homo sapiens, UniProt P09769); settings: FGR (TK), IPI00016871
T10 construct: determined in kinobeads assays with mass spectrometry detection of kinases as described previously; endogenous in cells; host or cells: cell lysate
T10 sequence (P09769 whole entry): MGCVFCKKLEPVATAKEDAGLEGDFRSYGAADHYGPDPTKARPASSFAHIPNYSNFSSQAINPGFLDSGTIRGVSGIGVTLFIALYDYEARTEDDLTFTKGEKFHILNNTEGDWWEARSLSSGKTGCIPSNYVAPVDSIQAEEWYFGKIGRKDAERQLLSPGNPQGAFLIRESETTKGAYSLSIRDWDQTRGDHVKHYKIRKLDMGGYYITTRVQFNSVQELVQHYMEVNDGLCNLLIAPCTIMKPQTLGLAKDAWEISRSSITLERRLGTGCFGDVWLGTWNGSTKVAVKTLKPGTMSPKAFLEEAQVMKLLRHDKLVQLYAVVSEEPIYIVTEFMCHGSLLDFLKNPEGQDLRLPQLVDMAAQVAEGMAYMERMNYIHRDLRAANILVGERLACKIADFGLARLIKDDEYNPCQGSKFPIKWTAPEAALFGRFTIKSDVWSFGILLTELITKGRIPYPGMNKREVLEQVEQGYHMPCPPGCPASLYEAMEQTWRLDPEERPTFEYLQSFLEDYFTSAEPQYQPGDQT
Excerpt: as §1

kinases (kinome) [11] = target: T11, kinases (kinome) (Homo sapiens, UniProt P27448); settings: MARK3 (CAMK), IPI00183118
T11 construct: determined in kinobeads assays with mass spectrometry detection of kinases as described previously; endogenous in cells; host or cells: cell lysate
Excerpt: as §1

kinases (kinome) [12] = target: T12, kinases (kinome) (Homo sapiens, UniProt Q07912); settings: ACK (TK), IPI00552750
T12 construct: determined in kinobeads assays with mass spectrometry detection of kinases as described previously; endogenous in cells; host or cells: cell lysate
T12 sequence (Q07912 whole entry): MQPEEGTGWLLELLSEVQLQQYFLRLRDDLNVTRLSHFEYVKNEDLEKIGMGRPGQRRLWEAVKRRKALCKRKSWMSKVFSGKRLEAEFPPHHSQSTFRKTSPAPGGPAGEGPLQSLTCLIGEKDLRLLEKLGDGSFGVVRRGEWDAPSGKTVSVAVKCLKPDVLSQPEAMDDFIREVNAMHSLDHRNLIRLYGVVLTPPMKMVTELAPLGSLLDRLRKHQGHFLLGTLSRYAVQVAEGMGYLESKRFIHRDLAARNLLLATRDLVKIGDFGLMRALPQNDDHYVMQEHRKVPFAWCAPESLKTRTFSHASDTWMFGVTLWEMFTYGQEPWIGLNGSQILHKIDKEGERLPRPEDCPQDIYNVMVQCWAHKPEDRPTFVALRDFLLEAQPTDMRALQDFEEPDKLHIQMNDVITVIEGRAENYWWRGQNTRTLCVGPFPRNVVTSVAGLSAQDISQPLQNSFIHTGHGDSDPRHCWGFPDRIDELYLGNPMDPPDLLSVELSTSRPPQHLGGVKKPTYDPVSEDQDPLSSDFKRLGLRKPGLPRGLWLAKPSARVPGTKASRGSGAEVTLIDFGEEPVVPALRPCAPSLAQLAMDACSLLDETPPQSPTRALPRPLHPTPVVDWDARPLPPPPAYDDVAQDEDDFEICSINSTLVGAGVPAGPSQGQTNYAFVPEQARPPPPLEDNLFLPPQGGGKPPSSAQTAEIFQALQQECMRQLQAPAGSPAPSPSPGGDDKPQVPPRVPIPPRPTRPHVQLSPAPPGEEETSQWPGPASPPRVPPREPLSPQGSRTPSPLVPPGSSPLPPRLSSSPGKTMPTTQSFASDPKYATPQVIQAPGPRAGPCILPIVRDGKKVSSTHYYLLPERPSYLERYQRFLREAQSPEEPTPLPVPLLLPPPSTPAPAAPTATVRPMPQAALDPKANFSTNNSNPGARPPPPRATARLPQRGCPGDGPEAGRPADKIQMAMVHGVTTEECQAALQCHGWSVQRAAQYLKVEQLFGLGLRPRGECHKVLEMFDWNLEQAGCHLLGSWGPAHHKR
Excerpt: as §1

kinases (kinome) [13] = target: T13, kinases (kinome) (Homo sapiens, UniProt P17252); settings: PKCa (AGC), IPI00385449
T13 construct: determined in kinobeads assays with mass spectrometry detection of kinases as described previously; endogenous in cells; host or cells: cell lysate
Excerpt: as §1

Measured: IC50

C[C@H]1COCCN1c1nc(-c2ccc(NC(=O)NC3CC3)cc2)cc(-c2ccccc2S(C)(=O)=O)n1 [Example 4, (S)-1-cyclopropyl-3-(4-(2-(3-methylmorpholino)-6-(2-(methylsulfonyl)phenyl)pyrimidin-4-yl)phenyl)urea]
> 10 µM: all assays above

C[C@H]1COCCN1c1cc(-c2ccccc2S(C)(=O)=O)nc(-c2ccc(NC(=O)NC3CC3)cc2)n1 [Example 6, (S)-1-cyclopropyl-3-(4-(4-(3-methylmorpholino)-6-(2-(methylsulfonyl)phenyl)pyrimidin-2-yl)phenyl)urea]
> 10 µM: all assays above

CCNC(=O)Nc1ccc(-c2cc(-c3ccccc3C#N)nc(N3CCOC[C@@H]3C)n2)cc1 [Example 8, (S)-1-(4-(6-(2-cyanophenyl)-2-(3-methylmorpholino)pyrimidin-4-yl)phenyl)-3-ethylurea]
> 10 µM: all assays above

C[C@H]1COCCN1c1nc(-c2ccc(NC(=O)NC3CC3)cc2)cc(-c2cc(F)ccc2S(C)(=O)=O)n1 [Example 40, (S)-1-cyclopropyl-3-(4-(6-(5-fluoro-2-(methylsulfonyl)phenyl)-2-(3-methylmorpholino)pyrimidin-4-yl)phenyl)urea]
> 10 µM: all assays above

C[C@H]1COCCN1c1cc(-c2ccccn2)nc(-c2ccc(NC(=O)NCCO)cc2)n1 [Example 43, (S)-1-(2-hydroxyethyl)-3-(4-(4-(3-methylmorpholino)-6-(pyridin-2-yl)pyrimidin-2-yl)phenyl)urea]
> 10 µM: all assays above

C[C@H]1COCCN1c1nc(-c2ccc(NC(=O)NC3CC3)cc2)cc(-c2cccnc2S(C)(=O)=O)n1 [Example 46, (S)-1-cyclopropyl-3-(4-(2-(3-methylmorpholino)-6-(2-(methylsulfonyl)pyridin-3-yl)pyrimidin-4-yl)phenyl)urea]
> 10 µM: all assays above

C[C@H]1COCCN1c1nc(-c2ccc(NC(=O)N[C@H]3CCC[C@@H]3O)cc2)cc(-c2cc(F)ccc2S(C)(=O)=O)n1 [Example 76, 1-(4-(6-(5-fluoro-2-(methylsulfonyl)phenyl)-2-((S)-3-methylmorpholino)pyrimidin-4-yl)phenyl)-3-((1S,2S)-2-hydroxycyclopentyl)urea]
> 10 µM: all assays above
